Reference: US5407951A, “Sulphonamidocycloalkane compounds, pharmaceutical compositions containing them, and methods of use thereof” (Boehringer Mannheim GmbH, priority 1988, dated 1995)

Tests used:
[1] = system: Male NMRI mice; experiment: In vivo inhibition of induced pulmonary emboli (survival after lethal dose of U46619); settings: lethal dose U46619 (800-1000 ug/kg) into tail vein four hours later, survival after 24 hours, groups of 5; for Survival Rate of Mouse 1 mg/kg, 4 h in %: 1 mg/kg by gastric route in 1% methyl cellulose; for Survival Rate of Mouse 25 mg/kg, 4 h in %: 25 mg/kg by gastric route in 1% methyl cellulose
Description: (b) In vivo Inhibition of Induced Pulmonary Emboli
Male NMRI mice, having a body weight of approximately 25g, were separated into groups of 5. Representative examples of the compounds of this invention listed in part (a) were suspended 1% methyl cellulose and administered to the animals by gastric incubation in amounts providing 1/mg/kg and 25/mg/kg of the antagonist, Four hours after incubation, a previously determined lethal dose of U46619 (800-1000 ug/kg) was injected into the tail vein of each animals. The survival rates for each group of mice was determined after 24 hours. The results are shown in Table 1 and indicate correlation with the IC50 measured in vitro.

[2] = system: Platelet-rich human blood plasma; experiment: In vitro inhibition of platelet aggregation induced by thromboxane mimetic U46619 (Born and Cross, aggregometer); type: cell-based; settings: citrated platelet-rich human plasma, measured for five minutes
Description: (a) In vitro Inhibition of Platelet Aggregation.
Platelet-rich human blood plasma was treated with 3.2% citrate at a volume ratio of 1:9 to inhibit clotting. A selective thromboxane mimetic, U46619, which is a stable analog of the prostaglandin endoperoxide PGH2, as described by Coleman et al., Brit. J. Pharmocol. 68,127P (1980) was obtained from Upjohn & Co., Kalamazoo, Mich.
The test protocol was that described by Born and Cross, J. Physiol. 168,178 (1963) with the degree of aggregation measured using a 4-channel aggregometer (Profiler, Bio/Data Co.). The compounds of this invention, Examples 2.1, 4(cis) 4(trans), 6 ad 7 were diluted in saline, at final concentrations of 10^-4 to 10^-9M. Saline was used as a control. Measurements were made for a period of five minutes, After addition of the tromboxane mimetic. From the data obtained, an inhibitory concentration IC50 was calculated using standard methods.

Compound | Survival Rate of Mouse 1 mg/kg, 4 h in % [1] [%] | Survival Rate of Mouse 25 mg/kg, 4 h in % [1] [%] | IC50 [2] [nM]
O=C(O)C1CCC(CCNS(=O)(=O)c2ccc(Cl)cc2)CC1 (stereo not drawn) [Example 2.1] | 100 | 100 | 2000
O=S(=O)(NCCC1CCC(OCc2nn[nH]n2)CC1)c1ccc(Cl)cc1 (stereo not drawn) [Example 7, 1-[2-(4-Chlorobenzenesulphonylamino)-ethyl]-4-(tetrazol-5-yl-methyleneoxy)-cyclohexane] | 100 | 100 | 420
O=C(CO[C@H]1CC[C@@H](CCNS(=O)(=O)c2ccc(Cl)cc2)CC1)Nc1nnn[nH]1 [4 (cis), cis-4-[2-(4-Chlorobenzenesulphonylamino)-ethyl]cyclohexyloxyacetic acid (tetrazol-5-yl)-amide] | 100 | 100 | 4600
O=C(CO[C@H]1CC[C@H](CCNS(=O)(=O)c2ccc(Cl)cc2)CC1)Nc1nnn[nH]1 [4 (trans), trans-4-[2-(4-chlorobenzenesulphonylamino)-ethyl]-cyclohexyloxy acetic acid (tetrazol-5-yl-amide)] | 60 | 100 | 5800
O=C(CC1CCC(CCNS(=O)(=O)c2ccc(Cl)cc2)CC1)Nc1nnn[nH]1 (stereo not drawn) [Example 6, 4-[2-(4-Chlorobenzenesulphonylamino)-ethyl]-cyclohexylacetic acid (tetrazol-5-yl-amide)] | 100 | 100 | 2500
